Measured values as given in US12281122B1, “PI3K inhibitors” (Cogent Biosciences, Inc., priority 2023, dated 2025).

Legend:
[1] = system: SKBR3 (PI3Kα-Wild Type) cell line; assay: HTRF phospho-AKT(S473) cell assay in SKBR3 cells; assay type: cell-based, human; conditions: Homo sapiens, SK-BR-3; HTRF phospho-AKT(S473), SKBR3 (PI3Kα-Wild Type) cells, 2 hours compound incubation, PDGF-BB stimulated
Procedure, shortened: (§1)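 T47D (PI3Kα-H1047R; RPMI, 10% FBS, insulin) and SKBR3 (wild-type PI3Kα; McCoy's 5A, 10% FBS) cells treated 2 h at 37 °C with 12-point 1:3 dilutions, top 5 μM and 10 μM respectively, ≤0.5% DMSO. SKBR3 stimulated with 70 ng/ml PDGF-BB for the last 15 min; lysate pAKT(S473) by HTRF, IC50 from curves.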

[2] = system: T47D (PI3Kα-H1047R) cell line; assay: HTRF phospho-AKT(S473) cell assay in T47D cells; assay type: cell-based, human; conditions: Homo sapiens; HTRF phospho-AKT(S473), T47D (PI3Kα-H1047R) cells, 2 hours compound incubation
Procedure, shortened: as §1

Cc1cc([C@@H](C)Nc2ccc(Cl)nc2C(=O)NS(C)(=O)=O)c2nc(N3CC[C@H](Oc4ccc(C)nn4)C3)n(C)c(=O)c2c1 [Compound 527, 6-chloro-3-(((R)-1-(3,6-dimethyl-2-((S)-3-((6-methylpyridazin-3-yl)oxy)pyrrolidin-1-yl)-4-oxo-3,4-dihydroquinazolin-8-yl)ethyl)amino)-N-(methylsulfonyl) picolinamide]
IC50 [1]: 1000 to 5000 nM
IC50 [2]: < 250 nM

Cc1cc([C@@H](C)Nc2ccc(Cl)nc2C(=O)NS(C)(=O)=O)c2nc(N3C[C@@H]4[C@H](C3)[C@H]4c3cn(C(C)C)nn3)n(C)c(=O)c2c1 [Compound 528, 6-chloro-3-(((R)-1-(2-((1R,5S,6R)-6-(1-isopropyl-1H-1,2,3-triazol-4-yl)-3-azabicyclo[3.1.0]hexan-3-yl)-3,6-dimethyl-4-oxo-3,4-dihydroquinazolin-8-yl)ethyl)amino)-N-(methylsulfonyl) picolinamide]
IC50 [1]: 1000 to 5000 nM
IC50 [2]: < 250 nM

Cc1cc([C@@H](C)Nc2ccc(Cl)nc2C(=O)NS(C)(=O)=O)c2nc(N3CCN(c4cncc(C)n4)CC3)n(C)c(=O)c2c1 [Compound 529, (R)-6-chloro-3-((1-(3,6-dimethyl-2-(4-(6-methylpyrazin-2-yl)piperazin-1-yl)-4-oxo-3,4-dihydroquinazolin-8-yl)ethyl)amino)-N-(methylsulfonyl) picolinamide]
IC50 [1]: 1000 to 5000 nM
IC50 [2]: < 250 nM

Cc1cc([C@@H](C)Nc2ccc(Cl)nc2C(=O)NS(C)(=O)=O)c2nc(N3CCN(c4ncc(Cl)cn4)CC3)n(C)c(=O)c2c1 [Compound 530, (R)-6-chloro-3-((1-(2-(4-(5-chloropyrimidin-2-yl)piperazin-1-yl)-3,6-dimethyl-4-oxo-3,4-dihydroquinazolin-8-yl)ethyl)amino)-N-(methylsulfonyl) picolinamide]
IC50 [1]: ≥ 5000 nM
IC50 [2]: 250 to 500 nM

Cc1cc([C@@H](C)Nc2ccc(Cl)nc2C(=O)NS(C)(=O)=O)c2nc(N3CCN(c4ncc(C#N)cn4)CC3)n(C)c(=O)c2c1 [Compound 531, (R)-6-chloro-3-((1-(2-(4-(5-cyanopyrimidin-2-yl)piperazin-1-yl)-3,6-dimethyl-4-oxo-3,4-dihydroquinazolin-8-yl)ethyl)amino)-N-(methylsulfonyl) picolinamide]
IC50 [1]: 1000 to 5000 nM
IC50 [2]: < 250 nM

Cc1cnc(N2CCN(c3nc4c([C@@H](C)Nc5ccc(Cl)nc5C(=O)NS(C)(=O)=O)cc(C)cc4c(=O)n3C)CC2)nc1 [Compound 532, (R)-6-chloro-3-((1-(3,6-dimethyl-2-(4-(5-methylpyrimidin-2-yl)piperazin-1-yl)-4-oxo-3,4-dihydroquinazolin-8-yl)ethyl)amino)-N-(methylsulfonyl) picolinamide]
IC50 [1]: ≥ 5000 nM
IC50 [2]: 250 to 500 nM

Cc1cc([C@@H](C)Nc2ccc(Cl)nc2C(=O)NS(C)(=O)=O)c2nc(N3CCN(c4ncc(F)cn4)CC3)n(C)c(=O)c2c1 [Compound 533, (R)-6-chloro-3-((1-(2-(4-(5-fluoropyrimidin-2-yl)piperazin-1-yl)-3,6-dimethyl-4-oxo-3,4-dihydroquinazolin-8-yl)ethyl)amino)-N-(methylsulfonyl) picolinamide]
IC50 [1]: 1000 to 5000 nM
IC50 [2]: < 250 nM

Cc1cc([C@@H](C)Nc2ccc(Cl)nc2C(=O)NS(C)(=O)=O)c2nc(N3Cc4nccnc4C3)n(C)c(=O)c2c1 [Compound 534, (R)-6-chloro-3-((1-(2-(5,7-dihydro-6H-pyrrolo[3,4-b]pyrazin-6-yl)-3,6-dimethyl-4-oxo-3,4-dihydroquinazolin-8-yl)ethyl)amino)-N-(methylsulfonyl) picolinamide]
IC50 [1]: 1000 to 5000 nM
IC50 [2]: < 250 nM

Cc1cc([C@@H](C)Nc2ccc(Cl)nc2C(=O)NS(C)(=O)=O)c2nc(N3C[C@@H]4C(c5ncc(Cl)cn5)[C@@H]4C3)n(C)c(=O)c2c1 (stereo partly drawn) [Compound 535, 6-chloro-3-(((1R)-1-(2-((1R,5S)-6-(5-chloropyrimidin-2-yl)-3-azabicyclo[3.1.0]hexan-3-yl)-3,6-dimethyl-4-oxo-3,4-dihydroquinazolin-8-yl)ethyl)amino)-N-(methylsulfonyl) picolinamide]
IC50 [1]: ≥ 5000 nM
IC50 [2]: 250 to 500 nM

Cc1cc([C@@H](C)Nc2ccc(Cl)nc2C(=O)NS(C)(=O)=O)c2nc(N3C[C@@H]4C(c5cnc(C(F)F)nc5)[C@@H]4C3)n(C)c(=O)c2c1 (stereo partly drawn) [Compound 536, 6-chloro-3-(((1R)-1-(2-((1R,5S)-6-(2-(difluoromethyl)pyrimidin-5-yl)-3-azabicyclo[3.1.0]hexan-3-yl)-3,6-dimethyl-4-oxo-3,4-dihydroquinazolin-8-yl)ethyl)amino)-N-(methylsulfonyl) picolinamide]
IC50 [1]: 1000 to 5000 nM
IC50 [2]: < 250 nM

Cc1cc([C@@H](C)Nc2ccc(Cl)nc2C(=O)NS(C)(=O)=O)c2nc(N3CC[C@H](Oc4ncc(F)cn4)C3)n(C)c(=O)c2c1 [Compound 537, 6-chloro-3-(((R)-1-(2-((S)-3-((5-fluoropyrimidin-2-yl)oxy)pyrrolidin-1-yl)-3,6-dimethyl-4-oxo-3,4-dihydroquinazolin-8-yl)ethyl)amino)-N-(methylsulfonyl) picolinamide]
IC50 [1]: ≥ 5000 nM
IC50 [2]: 250 to 500 nM

Cc1cc([C@@H](C)Nc2ccc(Cl)nc2C(=O)NS(C)(=O)=O)c2nc(N3CC[C@@H](Oc4ncc(F)cn4)C3)n(C)c(=O)c2c1 [Compound 538, 6-chloro-3-(((R)-1-(2-((R)-3-((5-fluoropyrimidin-2-yl)oxy)pyrrolidin-1-yl)-3,6-dimethyl-4-oxo-3,4-dihydroquinazolin-8-yl)ethyl)amino)-N-(methylsulfonyl) picolinamide]
IC50 [1]: 1000 to 5000 nM
IC50 [2]: < 250 nM

Cc1cc([C@@H](C)Nc2ccc(Cl)nc2C(=O)NS(C)(=O)=O)c2nc(N3CCC(c4cc(C)no4)CC3)n(C)c(=O)c2c1 [Compound 539, (R)-6-chloro-3-((1-(3,6-dimethyl-2-(4-(3-methylisoxazol-5-yl)piperidin-1-yl)-4-oxo-3,4-dihydroquinazolin-8-yl)ethyl)amino)-N-(methylsulfonyl) picolinamide]
IC50 [1]: ≥ 5000 nM
IC50 [2]: < 250 nM

Cc1cc([C@@H](C)Nc2ccc(Cl)nc2C(=O)NS(C)(=O)=O)c2nc(N3CC[C@H](Nc4ncccn4)C3)n(C)c(=O)c2c1 [Compound 540, 6-chloro-3-(((R)-1-(3,6-dimethyl-4-oxo-2-((S)-3-(pyrimidin-2-ylamino)pyrrolidin-1-yl)-3,4-dihydroquinazolin-8-yl)ethyl)amino)-N-(methylsulfonyl) picolinamide]
IC50 [1]: ≥ 5000 nM
IC50 [2]: 250 to 500 nM

Cc1cc([C@@H](C)Nc2ccc(Cl)nc2C(=O)NS(C)(=O)=O)c2nc(N3CC[C@@H](Nc4ncccn4)C3)n(C)c(=O)c2c1 [Compound 541, 6-chloro-3-(((R)-1-(3,6-dimethyl-4-oxo-2-((R)-3-(pyrimidin-2-ylamino)pyrrolidin-1-yl)-3,4-dihydroquinazolin-8-yl)ethyl)amino)-N-(methylsulfonyl) picolinamide]
IC50 [1]: ≥ 5000 nM
IC50 [2]: < 250 nM

COc1cc([C@H]2[C@@H]3CN(c4nc5c([C@@H](C)Nc6ccc(Cl)nc6C(=O)NS(C)(=O)=O)cc(C)cc5c(=O)n4C)C[C@@H]32)nn1C [Compound 542, 6-chloro-3-(((R)-1-(2-((1R,5S,6R)-6-(5-methoxy-1-methyl-1H-pyrazol-3-yl)-3-azabicyclo[3.1.0]hexan-3-yl)-3,6-dimethyl-4-oxo-3,4-dihydroquinazolin-8-yl)ethyl)amino)-N-(methylsulfonyl) picolinamide]
IC50 [1]: ≥ 5000 nM
IC50 [2]: 250 to 500 nM

Cc1cc([C@@H](C)Nc2ccc(Cl)nc2C(=O)NS(C)(=O)=O)c2nc(N3C[C@@H]4[C@H](C3)[C@H]4n3cc(F)c(C)n3)n(C)c(=O)c2c1 [Compound 543, 6-chloro-3-(((R)-1-(2-((1R,5S,6S)-6-(4-fluoro-3-methyl-1H-pyrazol-1-yl)-3-azabicyclo[3.1.0]hexan-3-yl)-3,6-dimethyl-4-oxo-3,4-dihydroquinazolin-8-yl)ethyl)amino)-N-(methylsulfonyl) picolinamide]
IC50 [1]: ≥ 5000 nM
IC50 [2]: 250 to 500 nM

Cc1cc([C@@H](C)Nc2ccc(Cl)nc2C(=O)NS(C)(=O)=O)c2nc(N3CCC(c4ncc(C)c(C)n4)CC3)n(C)c(=O)c2c1 [Compound 544, (R)-6-chloro-3-((1-(2-(4-(4,5-dimethylpyrimidin-2-yl)piperidin-1-yl)-3,6-dimethyl-4-oxo-3,4-dihydroquinazolin-8-yl)ethyl)amino)-N-(methylsulfonyl) picolinamide]
IC50 [1]: 1000 to 5000 nM
IC50 [2]: < 250 nM

Cc1cc([C@@H](C)Nc2ccc(Cl)nc2C(=O)NS(C)(=O)=O)c2nc(N3CCC(c4nc(C)co4)CC3)n(C)c(=O)c2c1 [Compound 545, (R)-6-chloro-3-((1-(3,6-dimethyl-2-(4-(4-methyloxazol-2-yl)piperidin-1-yl)-4-oxo-3,4-dihydroquinazolin-8-yl)ethyl)amino)-N-(methylsulfonyl) picolinamide]
IC50 [1]: ≥ 5000 nM
IC50 [2]: < 250 nM

CCn1c(N2CCc3nn(C)cc3C2)nc2c([C@@H](C)Nc3ccc(Cl)nc3C(=O)NS(C)(=O)=O)cc(C)cc2c1=O [Compound 546, (R)-6-chloro-3-((1-(3-ethyl-6-methyl-2-(2-methyl-2,4,6,7-tetrahydro-5H-pyrazolo[4,3-c]pyridin-5-yl)-4-oxo-3,4-dihydroquinazolin-8-yl)ethyl)amino)-N-(methylsulfonyl) picolinamide]
IC50 [1]: 1000 to 5000 nM
IC50 [2]: < 250 nM

Cc1cc([C@@H](C)Nc2ccc(Cl)nc2C(=O)NS(C)(=O)=O)c2nc(N3CCC(c4n[nH]c(C)c4F)CC3)n(C)c(=O)c2c1 [Compound 547, (R)-6-chloro-3-((1-(2-(4-(4-fluoro-5-methyl-1H-pyrazol-3-yl)piperidin-1-yl)-3,6-dimethyl-4-oxo-3,4-dihydroquinazolin-8-yl)ethyl)amino)-N-(methylsulfonyl) picolinamide]
IC50 [1]: ≥ 5000 nM
IC50 [2]: 250 to 500 nM
